For data set [1], the system named is Caco-2 cells. The note with it: 75 μM H2O2, 30 minutes incubation time; cited from earlier work.
Data set [2] has as its system Caco-2 cells. Kind of data set: STEM time series analysis of gene expression. Type of data set: cell-based, human. The note with it: for genes whose time-dependent expression correlates with 8-oxodG levels / genes significantly assigned to clusters of gene expression curves / number of different clusters of gene expression curves: STEM; for genes whose time-dependent expression correlates with 8-oxodG levels: log ratio transformed 8-oxodG levels; for genes significantly assigned to clusters of gene expression curves / number of different clusters of gene expression curves: 20 uM H2O2 or 100 uM menadione. The text has this: For identification of genes co-regulated time-dependently and clustering with the phenotypic parameters, the software tool “Short Time-series Expression Miner” (STEM, version 1.1.2b; http://www.cs.cmu.edu/˜jernst/stem/) was used. […] Profiles are clustered by correlation analyses.

In data set [3] the test system is Caco-2 cells. Kind of data set: Microarray gene expression, differentially expressed genes. It is filed as cell-based, human. The note with it: for number of differentially expressed genes: 20 uM H2O2 or 100 uM menadione, all time points up to 24 hours. As for the experimental part:
The Caco-2 human colorectal adenocarcinoma cell line (American Type Culture Collection, Manassas, Va., USA) was grown in Dulbecco's Modified Eagle's Medium supplemented with 10% fetal bovine serum, 1% non-essential amino acids, 1% sodium pyruvate and 1% penicillin/streptomycin, at 37° C., and 5% CO2. Cells were grown until 80% confluency before medium was replaced by DMEM without supplements containing 100 μM menadione or 20 μM H202. For microarray analyses, time-matched control cells were treated in an identical manner without addition of the oxidants. […] At the indicated time points, cells were fixed in 2 ml ice cold methanol for flow cytometry or medium was replaced by 1 ml Trizol for RNA/DNA isolation. Labelling and hybridisation of RNA samples were done according to Agilent's manual for microarrays with minor modifications ((Agilent Technologies, Breda, The Netherlands). RNA (0.5 μg) was transcribed into cDNA and labelled with Cyanine 3 (Cy3) or Cyanine 5 (Cy5). When dye-incorporation was above 7 pmol/μg RNA, 2 μg cRNA of the treated and time-matched control samples was applied on […] 22K and […] 4×44K Agilent Human Oligo Microarray. Slides were scanned on a GenePix 4000B (Molecular Devices, Sunnyvale, USA) with fixed laser power (100%) and PMT gain. For each exposure, two biological repeats per time point were performed. Also swapped Cy3 and Cy5 dye labelling was done, resulting in 72 hybridisations. Images were processed with ImaGene 6.0 software (BioDiscovery Inc., Los Angeles, USA) to quantify spot signals. Irregular spots were flagged. Data from ImaGene were transported into GeneSight software version 4.1.6 (BioDiscovery Inc., Los Angeles, USA). For each spot background was subtracted and flagged spots as well as spots with a net expression level below 20 in both channels were omitted. Data were log base 2 transformed and LOWESS normalization was applied. Expression difference with the time-matched control was calculated and if more than one probe of a gene was present on the array, the replicates were combined while omitting outliers (>2 standard deviations). Only the probe sets present at both types of array platforms were selected. […] The webtool GenePattern (http://genepattern.broad.mit.edu/gp/pages/index.jsf) was used for clustering and visualization of heat maps and cluster patterns.

The test system of data set [4] is Caco-2 cells. Kind of data set: Flow cytometric analysis of cell cycle distribution. Type of data set: cell-based, human. The following applies: for percentage of cells in the S phase: 20 uM H2O2 or 100 uM menadione. As for the experimental part: (§1) The Caco-2 human colorectal adenocarcinoma cell line (American Type Culture Collection, Manassas, Va., USA) was grown in Dulbecco's Modified Eagle's Medium supplemented with 10% fetal bovine serum, 1% non-essential amino acids, 1% sodium pyruvate and 1% penicillin/streptomycin, at 37° C., and 5% CO2. Cells were grown until 80% confluency before medium was replaced by DMEM without supplements containing 100 μM menadione or 20 μM H202. For microarray analyses, time-matched control cells were treated in an identical manner without addition of the oxidants. Samples were taken after 0.08, 0.25, 0.5, 1, 2, 4, 8, 16, or 24 hours. […] At the indicated time points, cells were fixed in 2 ml ice cold methanol for flow cytometry or medium was replaced by 1 ml Trizol for RNA/DNA isolation. Analyses of cell cycle profiles and apoptosis was performed as previously described. Cells were stained with propidium iodide; apoptotic cells were visualised by means of the primary antibody M30 CytoDeath (Roche, Penzberg, Germany) and FITC conjugated anti-mouse Ig as secondary antibody (DakoCytomation, Glostrup, Denmark). Data analysis was done using CellQuest software (version 3.1, Becton Dickinson, San Jose, USA). […] Cell cycle profiles were analyzed using ModFit LT for Mac (version 2.0). Data are presented as means ±SD.
A general note: A flow cytometer gives signals particle by particle.

Data set [5] has as its system Caco-2 cells. Kind of data set: MetaCore pathway analysis of differentially expressed genes. Type of data set: cell-based, human. The note with it: for Number of pathways: significant pathways p<0.01, 20 uM H2O2 or 100 uM menadione. An excerpt: The p-Values were all calculated using the basic formula for hypergeometric distribution. The p-Value essentially represents the probability for a particular mapping of an experiment to a pathway to arise by chance, considering the numbers of genes in experiment versus the number of genes in the pathway within the “full set” of all genes in the pathway.

In data set [6] the test system is Caco-2 cells. Kind of data set: ESR spectroscopy of cellular radical formation (DMPO spin trap). Type of data set: cell-based, human.
Data set [7] concerns Caco-2 cells. Put plainly: 8-oxodG analysis (oxidative DNA damage, HPLC-ECD). It is filed as cell-based, human. As for the experimental part: The Caco-2 human colorectal adenocarcinoma cell line (American Type Culture Collection, Manassas, Va., USA) was grown in Dulbecco's Modified Eagle's Medium supplemented with 10% fetal bovine serum, 1% non-essential amino acids, 1% sodium pyruvate and 1% penicillin/streptomycin, at 37° C., and 5% CO2. Cells were grown until 80% confluency before medium was replaced by DMEM without supplements containing 100 μM menadione or 20 μM H202. For microarray analyses, time-matched control cells were treated in an identical manner without addition of the oxidants. Samples were taken after 0.08, 0.25, 0.5, 1, 2, 4, 8, 16, or 24 hours. […] At the indicated time points, cells were fixed in 2 ml ice cold methanol for flow cytometry or medium was replaced by 1 ml Trizol for RNA/DNA isolation. […] Briefly, after extraction, DNA was digested into deoxyribonucleosides by treatment with nuclease P1 [0.02 U/μl] and alkaline phosphatase [0.014 U/μl]. The digest was then injected into a HPLC-ECD-system. […] UV-absorption of dG was simultaneously monitored at 260 nm. Data are presented as means ±SD.

Data set [8] deals with steroid 5-alpha reductase. The following applies: inhibition of steroid 5-alpha reductase; cited from earlier work.
Data set [9] has as its system Caco-2 cells. Kind of data set: Flow cytometric analysis of apoptosis (M30 CytoDeath). The note with it: 20 uM H2O2 or 100 uM menadione. It is filed as cell-based, human. As for the experimental part:
as §1

Data set [10] deals with rat hepatocytes. The note with it: up to 2 hours after incubation; cited from earlier work.

As to `OO` [H2O2, hydrogen peroxide], the “affected genes selected out of 12931 genes” value in [1] is listed as 87 genes. Moreover, the “Number of pathways of the gene expression cluster profile” value worked out at 4 in data set [2] (H2O2, STEM cluster 0, p<0.01); 1 in [2] (H2O2, STEM cluster 1, p<0.01); 9 in [2] (H2O2, STEM cluster 2, p<0.01); 1 in data set [2] (H2O2, STEM cluster 3, p<0.01); 3 in data set [2] (H2O2, STEM cluster 4, p<0.01); 4 in [2] (H2O2, STEM cluster 5, p<0.01). Also, the “genes whose time-dependent expression correlates with 8-oxodG levels” value in [2] stood at 8 genes. Further, the “genes significantly assigned to clusters of gene expression curves” value in [2] is given as 998 genes. Besides, in data set [2], the “number of different clusters of gene expression curves” value amounted to 6 clusters. In addition, the “genes clustered by STEM with cell cycle phase” value in data set [2] (cell cycle phase G1) is 29; in data set [2] (cell cycle phase G2/M), 45; in data set [2] (cell cycle phase S), 1. Further, the “significant pathways of genes clustered with cell cycle phase” value in [2] (cell cycle phase G1, p<0.01) is given as 0; in [2] (cell cycle phase G2/M, p<0.01) it was 1; in data set [2] (cell cycle phase S, p<0.01), 0. Also, the “number of differentially expressed genes” value in data set [3] is listed as 1404 genes. For the same molecule, the “recovery of the gene expression response” value in data set [3] (pulse-like response towards H2O2) was at most 1 h. In addition, the “number of cells in G1 phase” value in data set [4] (16 h after exposure, compared to control cells) is listed as “significantly decreased”. Also, in data set [4] (24 h, 20 uM H2O2), the “percentage of cells in the G1/M phase” value is “significantly increased”. In [4] (24 h), the “percentage of cells in the S phase” value is given as “significantly decreased”. For the same molecule, the “induction of the WNT signalling pathway” value in [5] (H2O2 exposure) is reported as “immediately”. Also, the Number of pathways in data set [5] (time 0.08 hrs) stood at 8; in data set [5] (time 0.25 hrs), 15; in [5] (time 0.5 hrs), 17; in data set [5] (time 1 hrs), 6; in data set [5] (time 2 hrs) it was 4; in [5] (time 4 hrs), 5. The Number of pathways in data set [5] (time 8 hrs) was 8; in [5] (time 16 hrs), 5; in [5] (time 24 hrs), 6. Besides, in data set [6] (increasing concentrations of H2O2), the “cellular HO. formation (DMPO.-OH)” value was “dose-dependent formation of DMPO.-OH”. Besides, the “8-oxodG level at 16 hours after exposure” value in [7] (20 uM H2O2, 16 hours) is “significantly elevated”. Moreover, the “time of significantly increased peak in 8-oxodG” value in data set [7] (20 uM H2O2, compared to control cells) worked out at 15 min.

Regarding `CC(C)(C)NC(=O)[C@H]1CC[C@H]2[C@@H]3CC[C@H]4NC(=O)C=C[C@]4(C)[C@H]3CC[C@]12C` [finasteride], the “effect on cellular H2O2 production” value in data set [8] is on record as “enhancement of cellular H2O2 production”.

As for `CC1=CC(=O)c2ccccc2C1=O` [menadione], in data set [2], the “genes whose time-dependent expression correlates with 8-oxodG levels” value turned out to be 3 genes. Besides, in data set [2], the “genes significantly assigned to clusters of gene expression curves” value turned out to be 680 genes. Moreover, the “number of different clusters of gene expression curves” value in data set [2] came out at 4 clusters. The “genes clustered by STEM with cell cycle phase” value in data set [2] (cell cycle phase G1) is given as 311; in data set [2] (cell cycle phase G2/M) it was 1; in data set [2] (cell cycle phase S) it was 74. For the same molecule, the “significant pathways of genes clustered with cell cycle phase” value in data set [2] (cell cycle phase G1, p<0.01) is given as 15; in data set [2] (cell cycle phase G2/M, p<0.01), 0; in data set [2] (cell cycle phase S, p<0.01), 4. In addition, the “Number of pathways of the gene expression cluster profile” value is reported as 12 in data set [2] (menadione, STEM cluster 0, p<0.01); 18 in data set [2] (menadione, STEM cluster 1, p<0.01); 4 in [2] (menadione, STEM cluster 2, p<0.01); 8 in data set [2] (menadione, STEM cluster 3, p<0.01). Besides, the “number of differentially expressed genes” value in data set [3] worked out at 979 genes. The “recovery of the gene expression response” value in data set [3] (up to 24 hours) is recorded as “no recovery”. Besides, the “cells of the G1 phase” value in [4] (24 h, 100 uM menadione) is recorded as “significant decrease”. Besides, the “percentage of cells in the S phase” value in [4] (24 h) is reported as “significant increase”. In addition, the “time after which the WNT signalling pathway is induced” value in data set [5] (menadione exposure) amounted to 1 h. The “number of pathways significantly induced exclusively by the oxidant” value in data set [5] (p < 0.01) is on record as 24. The Number of pathways in [5] (time 0.08 hrs) was determined as 18; in [5] (time 0.25 hrs), 16; in data set [5] (time 0.5 hrs) it was 14; in data set [5] (time 1 hrs), 15; in data set [5] (time 2 hrs) it was 8; in data set [5] (time 4 hrs), 10. The Number of pathways in data set [5] (time 8 hrs) came to 14; in data set [5] (time 16 hrs), 19; in data set [5] (time 24 hrs), 18. The “O2.-derived DMPO.-OH signal” value in data set [6] (100 uM, 45 minutes incubation time) is given as “showed an O2.-derived DMPO.-OH signal”. The “time of highest significantly increased level of 8-oxodG” value in data set [7] (100 uM menadione) is 2 h. The “8-oxodG level at 15 minutes” value in data set [7] (100 uM menadione, 15 minutes, much lower than H2O2 at 15 minutes) is listed as “significant increased level”. For the same molecule, the induction of apoptosis entry in data set [9] is “absence of apoptosis”. In addition, in [10], the 8-oxodG formation entry is listed as “absence of 8-oxodG formation”.

(Values after patent US20120077704A1, “METHOD FOR SCREENING COMPOUNDS FOR THE TREATMENT OR PREVENTION OF COLON CANCER” (priority 2009, published 2012).)
